Results reported in ChEMBL document CHEMBL1156251, “Structure--activity relationships of polymyxin antibiotics” (J Med Chem, 2010).
Converted amounts (≈) assume the structure as drawn. Where a SMILES comes first, the peptide text is derived from it. Bridges are numbered along the chain shown (N, C = ends). [ ]: non-standard residue; d: D form. The star is where a group is joined. Octanoyl = CCCCCCCC(=O)*; Dab = NCC[C@H](N)C(=O)O

Tests used:
Escherichia coli [1] = experiment: Antimicrobial activity against Escherichia coli; assay type: functional
Pseudomonas aeruginosa = experiment: Antimicrobial activity against Pseudomonas aeruginosa; assay type: functional, organism-based
Klebsiella pneumoniae = experiment: Antimicrobial activity against Klebsiella pneumoniae; assay type: functional
Escherichia coli [2] = experiment: Antimicrobial activity against Escherichia coli at 10 ug/mL; assay type: functional

Row | SMILES | MIC (Escherichia coli [1]) [µg/mL] | MIC (Pseudomonas aeruginosa) [µg/mL] | MIC (Klebsiella pneumoniae) [µg/mL] | GI (Escherichia coli [2]) [square millimeter]
1 | CC(C)C[C@@H]1NC(=O)[C@@H](Cc2ccccc2)NC(=O)[C@H](CCN)NC(=O)[C@@H](NC(=O)[C@H](CCN)NC(=O)[C@H](NC(=O)[C@H](C)NC(=O)[C@@H](C)NC(=O)[C@H](C)N)[C@@H](C)O)CCNC(=O)[C@@H]([C@@H](C)O)NC(=O)[C@H](CCN)NC(=O)[C@H](CCN)NC1=O | ≥ 500 | ≥ 500 | ≥ 500 | 
2 | CCCCCCCC(=O)N[C@H](C(=O)N[C@@H](CC)C(=O)N[C@H]1CCNC(=O)[C@H]([C@@H](C)O)NC(=O)[C@H](CCN)NC(=O)[C@H](CCN)NC(=O)[C@H](CC(C)C)NC(=O)[C@@H](Cc2ccccc2)NC(=O)[C@H](CCN)NC1=O)[C@@H](C)O |  |  |  | 32
3 | CCCCCCCC(=O)N[C@H](C(=O)N[C@@H](CCN)C(=O)N[C@H]1CCNC(=O)[C@H]([C@@H](C)O)NC(=O)[C@H](CCN)NC(=O)[C@H](CCN)NC(=O)[C@H](CC(C)C)NC(=O)[C@H](Cc2ccccc2)NC(=O)[C@H](CCN)NC1=O)[C@@H](C)O |  |  |  | 0
4 | CCCCCCCC(=O)N[C@H](C(=O)N[C@@H](CO)C(=O)N[C@H]1CCNC(=O)[C@H]([C@@H](C)O)NC(=O)[C@H](CCN)NC(=O)[C@H](CCN)NC(=O)[C@H](CC(C)C)NC(=O)[C@@H](Cc2ccccc2)NC(=O)[C@H](CCN)NC1=O)[C@@H](C)O (Octanoyl-TS[Dab][Dab][dF]L[Dab][Dab]T; lactam 3-C) |  |  |  | 171
5 | CCCCCCCC(=O)N[C@H](C(=O)N[C@H](CO)C(=O)N[C@H]1CCNC(=O)[C@H]([C@@H](C)O)NC(=O)[C@H](CCN)NC(=O)[C@H](CCN)NC(=O)[C@H]([C@H](C)O)NC(=O)[C@@H](Cc2ccccc2)NC(=O)[C@H](CCN)NC1=O)[C@@H](C)O |  |  |  | 172
6 | CCC(C)CCCCC(=O)N[C@@H](CC/N=C/c1ccc(O)c(OC)c1)C(=O)N[C@@H](C(=O)N[C@@H](CCN)C(=O)N[C@H]1CCNC(=O)[C@@H]([C@@H](C)O)NC(=O)[C@H](CC/N=C/c2ccc(O)c(OC)c2)NC(=O)[C@H](CC/N=C/c2ccc(O)c(OC)c2)NC(=O)[C@H](CC(C)C)NC(=O)[C@@H](CC(C)C)NC(=O)[C@H](CC/N=C/c2ccc(O)c(OC)c2)NC1=O)[C@@H](C)O (stereo partly drawn) | 5.5 (≈ 3.22 µM) |  | 2.8 (≈ 1.64 µM) | 

The next lines start with results.

Row | MIC (Escherichia coli [1]) [µg/mL] | MIC (Pseudomonas aeruginosa) [µg/mL] | MIC (Klebsiella pneumoniae) [µg/mL] | SMILES | GI (Escherichia coli [2]) [square millimeter]
7 | 1.54 (≈ 1.23 µM) | 1.53 (≈ 1.23 µM) | 22.6 (≈ 18.1 µM) | CCCCCCCC(=O)N[C@@H](CCN)C(=O)N[C@H](C(=O)N[C@@H](CCN)C(=O)N[C@H]1CCNC(=O)[C@H]([C@@H](C)O)NC(=O)[C@H](CCNC(=O)CO)NC(=O)[C@H](CCN)NC(=O)[C@H](CC(C)C)NC(=O)[C@@H](Cc2ccccc2)NC(=O)[C@H](CCN)NC1=O)[C@@H](C)O [HYDROXYACETYL DAB9 POLYMYXIN B] | 
8 | 0.77 (≈ 0.583 µM) | 0.416 (≈ 0.315 µM) | 5.65 (≈ 4.28 µM) | CCCCCCCC(=O)N[C@@H](CCN)C(=O)N[C@H](C(=O)N[C@@H](CCN)C(=O)N[C@H]1CCNC(=O)[C@H]([C@@H](C)O)NC(=O)[C@H](CCNC(=O)[C@H](N)CCSC)NC(=O)[C@H](CCN)NC(=O)[C@H](CC(C)C)NC(=O)[C@@H](Cc2ccccc2)NC(=O)[C@H](CCN)NC1=O)[C@@H](C)O | 
9 | 5 (≈ 3.2 µM) |  | 1.3 (≈ 0.831 µM) | CCC(C)CCCCC(=O)N[C@@H](CCNCc1ccccc1)C(=O)N[C@H](C(=O)N[C@@H](CCN)C(=O)N[C@H]1CCNC(=O)[C@H]([C@@H](C)O)NC(=O)[C@H](CCNCc2ccccc2)NC(=O)[C@H](CCNCc2ccccc2)NC(=O)[C@H](CC(C)C)NC(=O)[C@@H](Cc2ccccc2)NC(=O)[C@H](CCNCc2ccccc2)NC1=O)[C@@H](C)O (stereo partly drawn) | 
10 | 3.1 (≈ 2.36 µM) | 2.18 (≈ 1.66 µM) | 0.7 (≈ 0.532 µM) | CCCCCCCC(=O)N[C@@H](CCN)C(=O)N[C@@H](C(=O)N[C@@H](CCN)C(=O)N[C@H]1CCNC(=O)[C@H]([C@@H](C)O)NC(=O)[C@H](CCNCCCCCC(C)CC)NC(=O)[C@H](CCN)NC(=O)[C@H](CC(C)C)NC(=O)[C@@H](Cc2ccccc2)NC(=O)[C@H](CCN)NC1=O)[C@@H](C)O (stereo partly drawn) | 
11 | 8 (≈ 6.22 µM) | 4 (≈ 3.11 µM) | 16 (≈ 12.4 µM) | CC(C)C[C@@H]1NC(=O)[C@@H](Cc2ccccc2)NC(=O)[C@H](CCN)NC(=O)[C@@H](NC(=O)[C@H](CCN)NC(=O)[C@H](NC(=O)[C@H](CCN)NC(=O)OCC2c3ccccc3-c3ccccc32)[C@@H](C)O)CCNC(=O)[C@@H]([C@@H](C)O)NC(=O)[C@H](CCN)NC(=O)[C@H](CCN)NC1=O | 
12 | 724 (≈ 418 µM) |  | 12 (≈ 6.92 µM) | CCC(C)CCCCC(=O)N[C@@H](CCNCc1ccc(O)c(OC)c1)C(=O)N[C@@H](C(=O)N[C@@H](CCN)C(=O)N[C@H]1CCNC(=O)[C@@H]([C@@H](C)O)NC(=O)[C@H](CCNCc2ccc(O)c(O)c2)NC(=O)[C@H](CCNCc2ccc(O)c(OC)c2)NC(=O)[C@H](CC(C)C)NC(=O)[C@@H](Cc2ccccc2)NC(=O)[C@H](CCNCc2ccc(O)c(OC)c2)NC1=O)[C@@H](C)O (stereo partly drawn) | 
13 | 0.173 (≈ 0.133 µM) | 0.032 (≈ 0.0245 µM) | 2.8 (≈ 2.15 µM) | CCCCCCCC(=O)N[C@@H](CCN)C(=O)N[C@H](C(=O)N[C@@H](CCN)C(=O)N[C@H]1CCNC(=O)[C@H]([C@@H](C)O)NC(=O)[C@H](CCNC(=O)C(N)CCCN)NC(=O)[C@H](CCN)NC(=O)[C@H](CC(C)C)NC(=O)[C@@H](Cc2ccccc2)NC(=O)[C@H](CCN)NC1=O)[C@@H](C)O (stereo partly drawn) [L-LYSYL DAB9 POLYMYXIN B] | 
